According to patent publication US9133104B2 (Chroma Therapeutics Ltd., priority 2005, dated 2015):

Experiments:
[1] = molecular target: T1, histone deacetylase activity (HeLa nuclear extract); experiment: HDAC fluorescent activity assay (Biomol Fluor de Lys), HeLa nuclear extract; assay type: biochemical; settings: Fluor de Lys substrate, IC50 range
T1 construct: Histone deacetylase activity from crude nuclear extract derived from HeLa cells was used for screening
Protocol: The ability of compounds to inhibit histone deacetylase activities was measured using the commercially available HDAC fluorescent activity assay from Biomol. In brief, the Fluor de Lys™ substrate, a lysine with an epsilon-amino acetylation, is incubated with the source of histone deacetylase activity (HeLa nuclear extract) in the presence or absence of inhibitor. Deacetylation of the substrate sensitises the substrate to Fluor de Lys™ developer, which generates a fluorophore. Thus, incubation of the substrate with a source of HDAC activity results in an increase in signal that is diminished in the presence of an HDAC inhibitor.
Data are expressed as a percentage of the control, measured in the absence of inhibitor, with background signal being subtracted from all samples, as follows:— % activity=((S^i−B)/(S^o−B))×100 where S^i is the signal in the presence of substrate, enzyme and inhibitor, S^o is the signal in the presence of substrate, enzyme and the vehicle in which the inhibitor is dissolved, and B is the background signal measured in the absence of enzyme.
IC50 values were determined by non-linear regression analysis, after fitting the results of eight data points to the equation for sigmoidal dose response with variable slope (% activity against log concentration of compound), using Graphpad Prism software.
Histone deacetylase activity from crude nuclear extract derived from HeLa cells was used for screening. The preparation, purchased from 4C (Seneffe, Belgium), was prepared from HeLa cells harvested whilst in exponential growth phase. The nuclear extract is prepared according to Dignam JD1983 Nucl. Acid. Res. 11, 1475-1489, snap frozen in liquid nitrogen and stored at −80° C. The final buffer composition was 20 mM Hepes, 100 mM KCl, 0.2 mM EDTA, 0.5 mM DTT, 0.2 mM PMSF and 20% (v/v) glycerol.

Hela cancer cell line = experiment: Cell inhibition assay (SRB cell viability), Hela; assay type: cell-based; settings: 72 h, Hela cells, IC50 range
Protocol: (§1) The corresponding cancer cell lines (Hela, U937 and HUT) growing in log phase were harvested and seeded at 1000 cells/well (200 ul final volume) into 96-well tissue culture plates. Following 24 h of cell growth cells were treated with compounds (final concentration of 20 uM). Plates were then re-incubated for a further 72 h before a sulphorhodamine B (SRB) cell viability assay was conducted according to Skehan 1990 J Natl Canc Inst 82, 1107-1112.
(§2) Data were expressed as a percentage inhibition of the control, measured in the absence of inhibitor, as follows:— % inhibition=100−((S^i/S^o)×100) where S^i is the signal in the presence of inhibitor and S^o is the signal in the presence of DMSO. IC50 values were determined by non-linear regression analysis, after fitting the results of eight data points to the equation for sigmoidal dose response with variable slope (% activity against log concentration of compound), using Graphpad Prism software. […] NT=Not tested

U937 cancer cell line = experiment: Cell inhibition assay (SRB cell viability), U937; assay type: cell-based; settings: Homo sapiens, U-937, U937 cells, 72 h, IC50 range
Protocol: as §1, §2

HUT cancer cell line = experiment: Cell inhibition assay (SRB cell viability), HUT; assay type: cell-based; settings: HUT cells, 72 h, IC50 range
Protocol: as §1, §2

Compound	IC50 [1] [nM]	IC50 (Hela cancer cell line; Homo sapiens, HeLa) [nM]	IC50 (U937 cancer cell line) [nM]	IC50 (HUT cancer cell line) [nM]	IC50 (Hela cancer cell line) [nM]
CC(C)C[C@H](NCc1cccc(NCc2ccc3cc(C(=O)NO)sc3c2)c1)C(=O)OC1CCCC1 [Compound 133, (S)-2-{3-[(2-Hydroxycarbamoyl-benzo[b]thiophen-6-ylmethyl)-amino]-benzylamino}-4-methyl-pentanoic acid cyclopentyl ester]	101 to 1000	330 to 3300	330 to 3300	> 3300	
CC(C)C[C@H](NC(=O)[C@@H]1Cc2ccc(NC(=O)CCCCCCC(=O)NO)cc2CN1)C(=O)OC1CCCC1 [Compound 96, (S)-2-{[(S)-7-(7-Hydroxycarbamoyl-heptanoylamino)-1,2,3,4-tetrahydro-isoquinoline-3-carbonyl]-amino}-4-methyl-pentanoic acid cyclopentyl ester]	101 to 1000	> 3300	330 to 3300	330 to 3300	
O=C(CCCCCCC(=O)N1Cc2[nH]c3ccccc3c2C[C@H]1C(=O)N[C@H](C(=O)OC1CCCC1)c1ccccc1)NO [Compound 3, (S)-{[(S)-2-(7-Hydroxycarbamoyl-heptanoyl)-2,3,4,9-tetrahydro-1H-beta-carboline-3-carbonyl]-amino}-phenyl-acetic acid cyclopentyl ester]	> 1000	> 3300	330 to 3300	> 3300	
O=C(NO)c1cc2ccc(CNc3cccc(CN[C@H](C(=O)OC4CCCC4)c4ccccc4)c3)cc2s1 [Compound 130, (S)-{3-[(2-Hydroxycarbamoyl-benzo[b]thiophen-6-ylmethyl)-amino]-benzyl-amino}-phenyl-acetic acid cyclopentyl ester]	> 1000	> 3300	330 to 3300	> 3300	
O=C(CCCCCCC(=O)Nc1cccc(CN[C@H](C(=O)O)c2ccccc2)c1)NO [Compound 37, (S)-[3-(7-Hydroxycarbamoyl-heptanoylamino)-benzylamino]-phenyl-acetic acid]	101 to 1000	> 3300	> 3300	> 3300	
CC(C)(C)OC[C@H](NCc1cccc(NC(=O)CCCCCCC(=O)NO)c1)C(=O)O [Compound 33, (S)-3-tert-Butoxy-2-[3-(7-hydroxycarbamoyl-heptanoylamino)-benzylamino]-propionic acid]	101 to 1000	> 3300			
O=C(CCCCCCC(=O)N1Cc2ccccc2C[C@H]1C(=O)N[C@@H](Cc1ccccc1)C(=O)O)NO [Compound 49, (S)-2-{[(S)-2-(7-Hydroxycarbamoyl-heptanoyl)-1,2,3,4-tetrahydro-isoquinoline-3-carbonyl]amino}-3-phenyl-propionic acid]	101 to 1000				> 3300
O=C(CCCCCCC(=O)Nc1cccc(CNC(=O)N[C@H](C(=O)OC2CCCC2)c2ccccc2)c1)NO [Compound 79, (S)-{3-[3-(7-Hydroxycarbamoyl-heptanoylamino)-benzyl]-ureido}-phenyl-acetic acid cyclopentyl ester]	< 100		> 3300	> 3300	
O=C(CCCCCCC(=O)N1CCc2c([nH]c3ccccc23)C1C(=O)N[C@@H](Cc1ccccc1)C(=O)O)NO (stereo partly drawn) [Compound 65, (S)-2-{[2-(7-Hydroxycarbamoyl-heptanoyl)-2,3,4,9-tetrahydro-1H-beta-carboline-1-carbonyl]-amino}-3-phenyl-propionic acid]	< 100	> 3300			
O=C(CCCCCCC(=O)N1CCCC1C(=O)N[C@@H](Cc1ccccc1)C(=O)O)NO (stereo partly drawn) [Compound 57, (S)-2-{[1-(7-Hydroxycarbamoyl-heptanoyl)-pyrrolidine-2-carbonyl]-amino}-3-phenyl-propionic acid]	> 1000	> 3300			
O=C(CCCCCCC(=O)N1Cc2[nH]c3ccccc3c2C(C(=O)NC(Cc2ccccc2)C(=O)O)C1)NO [Compound 59, (S)-2-{[(S)-2-(7-Hydroxycarbamoyl-heptanoyl)-2,3,4,9-tetrahydro-1H-bet α-carboline-4-carbonyl]-amino}-3-phenyl-propionic acid]	< 100	> 3300			
O=C(CNCc1ccc(CNCc2ccc3cc(C(=O)NO)sc3c2)cc1)OC1CCCC1 [Compound 120, (4-{[(2-Hydroxycarbamoyl-benzo[b]thiophen-6-ylmethyl)-amino]-methyl}-benzylamino)-acetic acid cyclopentyl ester]	< 100		< 330	< 330	
O=C(CCCCCCC(=O)Nc1cccc(COC(=O)N[C@@H](Cc2ccccc2)C(=O)OC2CCCC2)c1)NO [Compound 94, (S)-2-[3-(7-Hydroxycarbamoyl-heptanoylamino)-benzyloxycarbonylamino]-3-phenyl-propionic acid cyclopentyl ester]	101 to 1000		330 to 3300	330 to 3300	
O=C(CCCCCCC(=O)Nc1cccc(CN[C@@H](CCc2ccccc2)C(=O)O)c1)NO [Compound 30, (S)-2-[3-(7-Hydroxycarbamoyl-heptanoylamino)-benzylamino]-4-phenyl-butyric acid]	101 to 1000	> 3300			
O=C(CCCCCCC(=O)Nc1cccc(CN[C@@H](Cc2ccccc2)C(=O)O)c1)NO [Compound 27, (S)-2-[3-(7-Hydroxycarbamoyl-heptanoylamino)-benzylamino]-3-phenyl-propionic acid]	101 to 1000	> 3300			
O=C(CCCCCCC(=O)N1CCCC1C(=O)N[C@H](C(=O)O)c1ccccc1)NO (stereo partly drawn) [Compound 54, (S)-{[1-(7-Hydroxycarbamoyl-heptanoyl)-pyrrolidine-2-carbonyl]-amino}-phenyl-acetic acid]	> 1000	> 3300			
O=C(CCCCCNC(=O)c1cccc(CN[C@H](C(=O)OC2CCCC2)c2ccccc2)c1)NO [Compound 69, (S)-[3-(5-Hydroxycarbamoyl-pentylcarbamoyl)-benzylamino]-phenyl-acetic acid cyclopentyl ester]	101 to 1000	330 to 3300		330 to 3300	
O=C(CCCCCCC(=O)Nc1cncc(CN[C@@H](Cc2ccccc2)C(=O)O)c1)NO [Compound 67, (S)-2-{[5-(7-Hydroxycarbamoyl-heptanoylamino)-pyridin-3-ylmethyl]-amino}-3-phenyl-propionic acid]	101 to 1000	> 3300			
O=C(NO)c1cc2ccc(CNCC3CCC(CN[C@H](C(=O)OC4CCCC4)c4ccccc4)CC3)cc2s1 (stereo partly drawn) [Compound 126, (S)-[(4-{[(2-Hydroxycarbamoyl-benzo[b]thiophen-6-ylmethyl)-amino]-methyl}-cyclohexylmethyl)-amino]phenyl-acetic acid cyclopentyl ester]	101 to 1000		< 330	> 3300	
O=C(CCCCCCC(=O)N1CCc2c([nH]c3ccccc23)C1C(=O)N[C@@H](Cc1ccccc1)C(=O)OC1CCCC1)NO (stereo partly drawn) [Compound 64, (S)-2-{[2-(7-Hydroxycarbamoyl-heptanoyl)-2,3,4,9-tetrahydro-1H-beta-carboline-1-carbonyl]-amino}-3-phenyl-propionic acid cyclopentyl ester]	101 to 1000	330 to 3300		330 to 3300	
CC(C)C[C@H](NCc1cccc(NC(=O)CCCCCCC(=O)NO)c1)C(=O)OC1CCCC1 [Compound 39, (S)-2-[3-(7-Hydroxycarbamoyl-heptanoylamino)-benzylamino]-4-methyl-pentanoic acid cyclopentyl ester]	101 to 1000		< 330	330 to 3300	
CC(C)(C)OC[C@H](NCc1ccc(NCc2ccc3cc(C(=O)NO)sc3c2)cc1)C(=O)OC1CCCC1 [Compound 134, (S)-3-tert-Butoxy-2-{4-[(2-hydroxycarbamoyl-benzo[b]thiophen-6-ylmethyl)-amino]-benzylamino}-propionic acid cyclopentyl ester]	101 to 1000		330 to 3300	> 3300	
CCOC(=O)[C@H](COC(C)(C)C)NCc1cccc(NC(=O)CCCCCCC(=O)NO)c1 [Compound 32, (S)-3-tert-Butoxy-2-[3-(7-hydroxycarbamoyl-heptanoylamino)-benzylamino]-propionic acid ethyl ester]	< 100	330 to 3300		330 to 3300	
